Data: patent US7446195B2, “High affinity thiophene-based and furan-based kinase ligands” (Schering Corporation, priority 2005, dated 2008)

Molecular target: CDK-2 (Homo sapiens, UniProt P24941)
Assay: CDK-2 inhibition (Table 1; fluorescence polarization displacement assay)
Format: binding
Conditions: inhibitory effectiveness toward CDK-2
Protocol: The affinity of lead inhibitors binding to CDK-2 and CDK-2/cyclin A were determined by measuring a Ki value using a fluorescence polarization displacement assay. The deacetylated form of compound BMS-250595 was reacted with Alexa Fluor 647 to generate a compound (BMS-Alexa Fluor647) that bound to both proteins and provided a signal for fluorescence polarization displacement. Binding assays were performed in a 384 well Costar NBS coated plate. A total volume of […] contained concentrations of CDK-2 or CDK-2/cyclin A at […], respectively. The concentration of BMS-Alexa Fluor647 was 50 nM. Serial dilutions of compounds were added to 12 wells. The final buffer concentration was 10 mM Hepes, pH 7.5, 150 mM NaCl, and 1 mM DTT. Samples were incubated at room temperature for 15 minutes and then read in an Analyst HT instrument using an excitation and emission wavelength of 580 and 680 nm, respectively. The […] curve fitting tool described by Zhang et al., 2004 (Zhang R., Mayhood T., Lipari P., Wang Y., Durkin D., Syto R., Gesell J., McNemar C., and Windsor W., Analytical Biochemistry 331 (2004) 138-146)

Compound	IC50
O=C(Nc1ccc(-n2cncn2)cc1)c1ccc(C(=O)NC2Cc3ccccc3C2)s1 [Compound 114]	≥ 40 µM
CN(C)CCCNC(=O)c1ccc(C(=O)Nc2ccc(-n3cncn3)cc2)s1 [Compound 140]	≥ 40 µM
O=C(Nc1ccc(-n2cncn2)cc1)c1ccc(C(=O)N2CCCCC2)s1 [Compound 84]	≥ 40 µM
C[C@H](O)CNC(=O)c1ccc(C(=O)Nc2ccc(-n3cncn3)cc2)s1 [Compound 135]	≥ 40 µM
O=C(NC[C@@H]1CCCO1)c1ccc(C(=O)Nc2ccc(-n3cncn3)cc2)s1 [Compound 94]	≥ 40 µM
CC(C)NC(=O)c1ccc(C(=O)Nc2ccc(-n3cncn3)cc2)s1 [Compound 81]	≥ 40 µM
O=C(NCCc1c[nH]cn1)c1ccc(C(=O)Nc2ccc(-n3cncn3)cc2)s1 [Compound 103]	≥ 40 µM
Cc1ccccc1C(=O)Nc1ccc(C(=O)Nc2ccc(-n3cncn3)cc2)s1 [Compound 34]	≤ 1 µM
O=C(Nc1ccc(-n2cncn2)c(F)c1)c1ccc(C(=O)NC2CCCCC2)o1 [Compound 27]	≤ 1 µM
O=C(NC[C@H]1CCCO1)c1ccc(C(=O)Nc2ccc(-n3cncn3)cc2)s1 [Compound 93]	≥ 40 µM
Cn1nc(C2CC2)cc1NC(=O)c1ccc(C(=O)Nc2ccc(-n3cncn3)cc2)s1 [Compound 64]	1 to 40 µM
Cc1ccccc1NC(=O)c1ccc(C(=O)Nc2ccc(-n3cncn3)cc2)o1 [Compound 31]	≤ 1 µM
O=C(NC[C@@H]1CCNC1)c1ccc(C(=O)Nc2ccc(-n3cncn3)cc2)s1 [Compound 138]	≥ 40 µM
Nc1ccc(CNC(=O)c2ccc(C(=O)Nc3ccc(-n4cncn4)cc3)s2)cn1 [Compound 164]	≥ 40 µM
O=C(Nc1ccc(-n2cncn2)c(F)c1)c1ccc(C(=O)N[C@H]2CC[C@H](O)CC2)o1 [Compound 49]	1 to 40 µM
O=C(Nc1ccc(-n2cncn2)c(F)c1)c1ccc(C(=O)Nc2ccccc2OCc2ccncc2)s1 [Compound 202]	≥ 40 µM
O=C(Nc1ccc(-n2cncn2)cc1)c1ccc(C(=O)Nc2nc3c(s2)CCCC3)s1 [Compound 60]	1 to 40 µM

Compound	IC50
O=C(Nc1ccc(-n2cncn2)cc1)c1ccc(C(=O)N[C@@H]2CCc3ccccc32)s1 [Compound 113]	≥ 40 µM
O=C(NCc1ccccc1)c1ccc(C(=O)Nc2ccc(-n3cncn3)cc2)s1 [Compound 63]	1 to 40 µM
O=C(Nc1ccc(-n2cncn2)cc1)c1ccc(C(=O)NC2CCCCC2)o1 [Compound 18]	≤ 1 µM
O=C(NCc1nc2ccccc2[nH]1)c1ccc(C(=O)Nc2ccc(-n3cncn3)cc2)s1 [Compound 158]	≥ 40 µM
CN1CCN(C(=O)c2ccc(C(=O)Nc3ccc(-n4cncn4)cc3)s2)CC1 [Compound 137]	≥ 40 µM
CN(C(=O)c1ccc(C(=O)Nc2ccc(-n3cncn3)c(F)c2)o1)C1CCCCC1 [Compound 213]	≥ 40 µM
COc1ccc(C(=O)Nc2ccc(C(=O)N3CCC(c4ccncc4)C3)s2)c(C)c1 (stereo not drawn) [Compound 189]	≥ 40 µM
O=C(Nc1ccccc1)c1ccc(C(=O)Nc2ccc(-n3cncn3)cc2)o1 [Compound 45]	1 to 40 µM
O=C(Nc1ccc(-n2cncn2)cc1)c1ccc(C(=O)NC2CCCC2)s1 [Compound 73]	1 to 40 µM
CN1CCC(NC(=O)c2ccc(C(=O)Nc3ccc(-n4cncn4)cc3)s2)CC1 [Compound 141]	≥ 40 µM
O=C(Nc1ccncc1)c1ccc(C(=O)Nc2ccc(-n3cncn3)cc2)o1 [Compound 69]	1 to 40 µM
O=C(Nc1ccc(C(=O)Nc2ccc(-n3cncn3)cc2)s1)c1ccncc1 [Compound 194]	≥ 40 µM
Cn1cnc(CCNC(=O)c2ccc(C(=O)Nc3ccc(-n4cncn4)cc3)s2)c1 [Compound 143]	≥ 40 µM
O=C(Nc1ccc(-n2cncn2)cc1)c1ccc(C(=O)N2CCc3ccccc3C2)s1 [Compound 74]	1 to 40 µM
COc1ccc(C(=O)Nc2ccc(C(=O)Nc3ccc(-n4cncn4)cc3)o2)cc1 [Compound 181]	≥ 40 µM
O=C(Nc1ccc(-n2cncn2)cc1)c1ccc(C(=O)N2CCCC2c2cccnc2)s1 (stereo not drawn) [Compound 150]	≥ 40 µM

Now from value to molecule:

IC50	Compound
≥ 40 µM	COc1ccc(C(=O)Nc2ccc(C(=O)Nc3ccc(-n4ccnc4)cc3)o2)c(C)c1 [Compound 193]
≤ 1 µM	Cc1cc(Cn2ccnc2)ccc1NC(=O)c1ccc(C(=O)Nc2ccc(-n3cncn3)c(F)c2)s1 [Compound 10]
≤ 1 µM	COc1ccc(NC(=O)c2ccc(C(=O)Nc3ccc(-c4nc[nH]n4)c(F)c3)s2)c(C)c1 [Compound 22]
1 to 40 µM	Cc1ccsc1CNC(=O)c1ccc(C(=O)Nc2ccc(-n3cncn3)cc2)s1 [Compound 55]
≥ 40 µM	COc1cccc(NC(=O)c2ccc(C(=O)Nc3ccc(-n4cncn4)cc3)s2)c1 [Compound 157]
≥ 40 µM	O=C(Nc1ccc(-n2cncn2)cc1)c1ccc(C(=O)Nc2cc(F)ccc2F)s1 [Compound 166]
1 to 40 µM	O=C(Nc1ccc(Cl)cc1)c1ccc(C(=O)Nc2ccc(-n3cncn3)cc2)s1 [Compound 53]
1 to 40 µM	COc1ccc(N(C)C(=O)c2ccc(C(=O)Nc3ccc(-n4cncn4)cc3)s2)cc1 [Compound 68]
≤ 1 µM	COc1ccc(C(=O)Nc2ccc(C(=O)Nc3ccc(-n4cncn4)c(F)c3)s2)c(C)c1 [Compound 14]
≤ 1 µM	Cc1cc(CN2CCN(C)CC2)ccc1NC(=O)c1ccc(C(=O)Nc2ccc(-n3cncn3)c(F)c2)s1 [Compound 23]
≥ 40 µM	O=C(Nc1ccc(-n2cncn2)cc1)c1ccc(C(=O)Nc2ccccn2)s1 [Compound 90]
1 to 40 µM	COc1ccc(Cl)cc1NC(=O)c1ccc(C(=O)Nc2ccc(-n3cncn3)cc2)s1 [Compound 62]
≥ 40 µM	COc1ccc(NC(=O)c2ccc(C(=O)Nc3ccc(N(C)C)cc3)s2)c(C)c1 [Compound 124]
≤ 1 µM	Cc1cc(N2CCOCC2)ccc1NC(=O)c1ccc(C(=O)Nc2ccc(-n3cncn3)cc2)s1 [Compound 3]
1 to 40 µM	Cc1cc(NC(=O)c2ccc(C(=O)Nc3ccc(-n4cncn4)cc3)s2)n(C)n1 [Compound 67]
≤ 1 µM	Cc1cc(CN2CCN(C)CC2)ccc1NC(=O)c1ccc(C(=O)Nc2ccc(-n3cncn3)cc2)s1 [Compound 32]
≤ 1 µM	Cc1cc(Cn2ccnc2)ccc1NC(=O)c1ccc(C(=O)Nc2ccc(-n3cncn3)cc2)s1 [Compound 9]
≥ 40 µM	COc1ccc(NC(=O)c2ccc(C(=O)Nc3ccc(-n4cccn4)cc3)s2)c(C)c1 [Compound 129]
≤ 1 µM	Cc1cc(OCCN2CCOCC2)ccc1NC(=O)c1ccc(C(=O)Nc2ccc(-n3cncn3)cc2)s1 [Compound 11]
≥ 40 µM	Cn1nc(-c2ccc(Cl)cc2)cc1NC(=O)c1ccc(C(=O)Nc2ccc(-n3cncn3)cc2)s1 [Compound 196]
1 to 40 µM	CNCc1ccc(NC(=O)c2ccc(C(=O)Nc3ccc(-n4cncn4)c(F)c3)s2)c(C)c1 [Compound 70]

IC50	Compound
≤ 1 µM	Cc1cc(OCCN2CCN(C)CC2)ccc1NC(=O)c1ccc(C(=O)Nc2ccc(-n3cncn3)cc2)s1 [Compound 12]
1 to 40 µM	Cc1cc(CN(C)C)ccc1NC(=O)c1ccc(C(=O)Nc2ccc(-n3cncn3)cc2)s1 [Compound 47]
1 to 40 µM	Cc1cc(CN(C)C)ccc1NC(=O)c1ccc(C(=O)Nc2ccc(-n3cncn3)c(F)c2)s1 [Compound 48]
≥ 40 µM	COc1ccc(NC(=O)c2ccc(C(=O)Nc3ccc4sc(SC)nc4c3)s2)c(C)c1 [Compound 174]
≥ 40 µM	CCOc1ccccc1NC(=O)c1ccc(C(=O)Nc2ccc(-n3cncn3)c(F)c2)s1 [Compound 201]
≥ 40 µM	COc1ccc(NC(=O)c2ccc(C(=O)Nc3ccc(N4CCOCC4)cc3)s2)c(C)c1 [Compound 120]
≥ 40 µM	O=C(Nc1ccccc1)c1ccc(C(=O)Nc2ccc(-n3cncn3)cc2)s1 [Compound 89]
≥ 40 µM	COc1ccc(NC(=O)c2ccc(C(=O)Nc3ccc(C(N)=O)cc3)s2)c(C)c1 [Compound 176]
≥ 40 µM	O=C(Nc1ccc(-n2cncn2)cc1)c1ccc(C(=O)Nc2ccc3c(c2)OCO3)s1 [Compound 148]
≤ 1 µM	O=C(Nc1ccc(-n2cncn2)c(F)c1)c1ccc(C(=O)Nc2ccccc2Cl)s1 [Compound 19]
≥ 40 µM	COc1ccc(NC(=O)c2ccc(C(=O)Nc3ccc4ncccc4c3)s2)c(C)c1 [Compound 169]
≤ 1 µM	Cc1ccccc1NC(=O)c1ccc(C(=O)Nc2ccc(-n3cncn3)cc2)s1 [Compound 24]
≥ 40 µM	O=C(Nc1ccc(-n2cncn2)cc1)c1ccc(C(=O)Nc2cccc(O)c2)s1 [Compound 163]
≥ 40 µM	O=C(Nc1ccc(-n2cncn2)cc1)c1ccc(C(=O)Nc2cc(-c3ccco3)n[nH]2)s1 [Compound 197]
≥ 40 µM	Cc1cccc(NC(=O)c2ccc(C(=O)Nc3ccc(-n4cncn4)cc3)s2)n1 [Compound 101]
≤ 1 µM	COc1ccc(NC(=O)c2ccc(C(=O)Nc3ccc(-c4nnc[nH]4)cc3)s2)c(C)c1 [Compound 25]
1 to 40 µM	CNCc1ccc(NC(=O)c2ccc(C(=O)Nc3ccc(-n4cncn4)cc3)s2)c(C)c1 [Compound 51]
≤ 1 µM	COc1ccc(NC(=O)c2ccc(C(=O)Nc3ccc(-n4cncn4)c(F)c3)o2)c(C)c1 [Compound 5]
≤ 1 µM	Cc1cc(N2CCN(C)CC2)ccc1NC(=O)c1ccc(C(=O)Nc2ccc(-n3cncn3)cc2)s1 [Compound 29]
≥ 40 µM	COc1ccc(NCc2ccc(C(=O)Nc3ccc(-n4cncn4)cc3)o2)c(C)c1 [Compound 198]
≥ 40 µM	COc1cccc(C2CCN(C(=O)c3ccc(C(=O)Nc4ccc(-n5cncn5)cc4)s3)C2)c1 (stereo not drawn) [Compound 119]
